Measured values as given in PMC7188728, “A phase I study investigation of metabolism, and disposition of [^14C]-anlotinib after an oral administration in patients with advanced refractory solid tumors” (Cancer Chemotherapy and Pharmacology, 2020).
Counter-ions that a name gives are not always drawn.

Key:
[1] = Adverse events after a single dose of 14C anlotinib suspension; format: in vivo, human
[2] = system: human cytochrome P450 3A4; design: method as in PMID 29441353; conditions: in vitro; read-out: Half maximum inhibitory concentration; cited from earlier work

For `COc1cc2c(Oc3ccc4[nH]c(C)cc4c3F)ccnc2cc1OCC1(N)CC1` [anlotinib, 1-[[4-(4-fluoro-2-methyl-1H-indol-5-yloxy)-6-methoxyquinolin-7-yl]oxy]methyl) cyclopropanamine dihydrochloride], the “Insomnia: number of cases of grade 1/2 (%)” value ([1]; D1 ~ D18, N = 6) was 2 (33.33%) n (%), the “Insomnia: number of cases of grade 3 (%)” value ([1]; D1 ~ D18, N = 6) was 0 n (%) and the “Liver function damage: number of cases of grade 1/2 (%)” value ([1]; D1 ~ D18, N = 6) was 0 n (%). The “Liver function damage: number of cases of grade 3 (%)” value ([1]; D1 ~ D18, N = 6) was 1 (16.67%) n (%), the “Proteinuria: number of cases of grade 1/2 (%)” value ([1]; D1 ~ D18, N = 6) was 1 (16.67%) n (%) and the “Proteinuria: number of cases of grade 3 (%)” value ([1]; D1 ~ D18, N = 6) was 0 n (%). For the same compound, the “Rapid atrial fibrillation: number of cases of grade 1/2 (%)” value ([1]; D1 ~ D18, N = 6) was 1 (16.67%) n (%), the “Rapid atrial fibrillation: number of cases of grade 3 (%)” value ([1]; D1 ~ D18, N = 6) was 0 n (%) and the “Sinus bradycardia: number of cases of grade 1/2 (%)” value ([1]; D1 ~ D18, N = 6) was 1 (16.67%) n (%). For the same compound, the “Sinus bradycardia: number of cases of grade 3 (%)” value ([1]; D1 ~ D18, N = 6) was 0 n (%), the “Sinus tachycardia: number of cases of grade 1/2 (%)” value ([1]; D1 ~ D18, N = 6) was 1 (16.67%) n (%) and the “Sinus tachycardia: number of cases of grade 3 (%)” value ([1]; D1 ~ D18, N = 6) was 0 n (%). For the same compound, the “Stomachache: number of cases of grade 1/2 (%)” value ([1]; D1 ~ D18, N = 6) was 1 (16.67%) n (%), the “Stomachache: number of cases of grade 3 (%)” value ([1]; D1 ~ D18, N = 6) was 0 n (%) and the “Alkaline phosphatase increased: number of cases of grade 1/2 (%)” value ([1]; Research process, N = 6) was 1 (16.67%) n (%). For the same compound, the “Alkaline phosphatase increased: number of cases of grade 3 (%)” value ([1]; Research process, N = 6) was 0 n (%), the “Anemia: number of cases of grade 1/2 (%)” value ([1]; Research process, N = 6) was 1 (16.67%) n (%) and the “Anemia: number of cases of grade 3 (%)” value ([1]; Research process, N = 6) was 0 n (%). The “Aspartate aminotransferase increased: number of cases of grade 1/2 (%)” value ([1]; Research process, N = 6) was 0 n (%), the “Aspartate aminotransferase increased: number of cases of grade 3 (%)” value ([1]; Research process, N = 6) was 1 (16.67%) n (%) and the “At least once (any adverse event): number of cases of grade 3 (%)” value ([1]; Research process, N = 6) was 3 (50%) n (%). The “Constipation: number of cases of grade 1/2 (%)” value ([1]; Research process, N = 6) was 2 (33.33%) n (%), the “Constipation: number of cases of grade 3 (%)” value ([1]; Research process, N = 6) was 0 n (%) and the “Cough: number of cases of grade 1/2 (%)” value ([1]; Research process, N = 6) was 1 (16.67%) n (%). For the same compound, the “Cough: number of cases of grade 3 (%)” value ([1]; Research process, N = 6) was 0 n (%), the “Diarrhea: number of cases of grade 1/2 (%)” value ([1]; Research process, N = 6) was 2 (33.33%) n (%) and the “Diarrhea: number of cases of grade 3 (%)” value ([1]; Research process, N = 6) was 0 n (%). The “Hemoptysis: number of cases of grade 1/2 (%)” value ([1]; Research process, N = 6) was 1 (16.67%) n (%), the “Hemoptysis: number of cases of grade 3 (%)” value ([1]; Research process, N = 6) was 0 n (%) and the “Hypertriglyceridemia: number of cases of grade 1/2 (%)” value ([1]; Research process, N = 6) was 1 (16.67%) n (%). The “Hypertriglyceridemia: number of cases of grade 3 (%)” value ([1]; Research process, N = 6) was 0 n (%), the “Hypoalbuminemia: number of cases of grade 1/2 (%)” value ([1]; Research process, N = 6) was 3 (50%) n (%) and the “Hypoalbuminemia: number of cases of grade 3 (%)” value ([1]; Research process, N = 6) was 0 n (%). The “Hypocalcemia: number of cases of grade 1/2 (%)” value ([1]; Research process, N = 6) was 1 (16.67%) n (%), the “Hypocalcemia: number of cases of grade 3 (%)” value ([1]; Research process, N = 6) was 0 n (%) and the “Hypophosphatemia: number of cases of grade 1/2 (%)” value ([1]; Research process, N = 6) was 1 (16.67%) n (%). For the same compound, the “Hypophosphatemia: number of cases of grade 3 (%)” value ([1]; Research process, N = 6) was 1 (16.67%) n (%), the “Hypothyroidism: number of cases of grade 1/2 (%)” value ([1]; Research process, N = 6) was 1 (16.67%) n (%) and the “Hypothyroidism: number of cases of grade 3 (%)” value ([1]; Research process, N = 6) was 0 n (%). For the same compound, the “Increased alanine aminotransferase: number of cases of grade 1/2 (%)” value ([1]; Research process, N = 6) was 1 (16.67%) n (%), the “Increased alanine aminotransferase: number of cases of grade 3 (%)” value ([1]; Research process, N = 6) was 1 (16.67%) n (%) and the “Increased blood bilirubin: number of cases of grade 1/2 (%)” value ([1]; Research process, N = 6) was 1 (16.67%) n (%). The “Increased blood bilirubin: number of cases of grade 3 (%)” value ([1]; Research process, N = 6) was 1 (16.67%) n (%), the “Increased lactate dehydrogenase: number of cases of grade 1/2 (%)” value ([1]; Research process, N = 6) was 1 (16.67%) n (%) and the “Increased lactate dehydrogenase: number of cases of grade 3 (%)” value ([1]; Research process, N = 6) was 0 n (%). For the same compound, the “Increased lipase: number of cases of grade 1/2 (%)” value ([1]; Research process, N = 6) was 2 (33.33%) n (%), the “Increased lipase: number of cases of grade 3 (%)” value ([1]; Research process, N = 6) was 2 (33.33%) n (%) and the “Increased γ-glutamyl transpeptidase: number of cases of grade 1/2 (%)” value ([1]; Research process, N = 6) was 1 (16.67%) n (%). For the same compound, the “Increased γ-glutamyl transpeptidase: number of cases of grade 3 (%)” value ([1]; Research process, N = 6) was 1 (16.67%) n (%), the “Insomnia: number of cases of grade 1/2 (%)” value ([1]; Research process, N = 6) was 2 (33.33%) n (%) and the “Insomnia: number of cases of grade 3 (%)” value ([1]; Research process, N = 6) was 0 n (%). The “Liver function damage: number of cases of grade 1/2 (%)” value ([1]; Research process, N = 6) was 0 n (%), the “Liver function damage: number of cases of grade 3 (%)” value ([1]; Research process, N = 6) was 1 (16.67%) n (%) and the “Proteinuria: number of cases of grade 1/2 (%)” value ([1]; Research process, N = 6) was 1 (16.67%) n (%). For the same compound, the “Proteinuria: number of cases of grade 3 (%)” value ([1]; Research process, N = 6) was 0 n (%), the “Rapid atrial fibrillation: number of cases of grade 1/2 (%)” value ([1]; Research process, N = 6) was 1 (16.67%) n (%) and the “Rapid atrial fibrillation: number of cases of grade 3 (%)” value ([1]; Research process, N = 6) was 0 n (%). For the same compound, the “Sinus bradycardia: number of cases of grade 1/2 (%)” value ([1]; Research process, N = 6) was 1 (16.67%) n (%), the “Sinus bradycardia: number of cases of grade 3 (%)” value ([1]; Research process, N = 6) was 0 n (%) and the “Sinus tachycardia: number of cases of grade 1/2 (%)” value ([1]; Research process, N = 6) was 1 (16.67%) n (%). For the same compound, the “Sinus tachycardia: number of cases of grade 3 (%)” value ([1]; Research process, N = 6) was 0 n (%), the “Stomachache: number of cases of grade 1/2 (%)” value ([1]; Research process, N = 6) was 1 (16.67%) n (%) and the “Stomachache: number of cases of grade 3 (%)” value ([1]; Research process, N = 6) was 0 n (%). For the same compound, the “Patients in whom adverse events occurred” value ([1]; six patients, after a single dosage) was “five”, the “Patients in whom severe adverse events (SAE) occurred” value ([1]; six patients, follow-up period) was “one” and the IC50 [2] was 110 nM.
